Six compounds from patent US10201559B2, “Compositions of selenoorganic compounds and methods of use thereof” (Alltech, Inc., priority 2014, dated 2019) can be followed below.

Where two headings read alike, the source gives them in different places. Square brackets hold non-standard residues; d marks the D form. Peptide text beside a SMILES is read from it. Sec = N[C@@H](C[SeH])C(=O)O

In one series the test system is C2C12 cells. The series can be described thus: Quantitative analysis of mitochondrial potential in C2C12 cells. It is filed as cell-based, mouse. The conditions noted are these: all concentrations. How it is done: For C2C12 cells, equal number of cells (1×10^4) were seeded on Corning 96-well clear-bottom and dark-wall cell culture plates (VWR), cultured in 10% FBS DMEM media for 24 hr., and then treated with vehicle (sterilized water), compound C and D and their sulfur analogs for 24 and 48 hrs. These vehicle- or compound-treated cells were rinsed twice with PBS, incubated with Mitotracker Orange fluorescence dye at 37° C. for 30 min, and then replaced with PBS. Mitotracker Orange fluorescence intensities (mitochondrial potential) in these living cells were determined by a Bio-TeK Synergy HT Multi-Mode Fluorescence Microplate Reader (Winooski, Vt.). Eight samples per each treatment were examined for the above analysis, and data are presented as mean±sem of eight samples.

Series [1] has as its system IMR-32 cells. The series can be described thus: Cell viability assay, IMR-32. The format is cell-based, human. The method, then: (§1) Cell viability in cultured cells was determined using Promega's CellTiter96® AQueous One Solution Cell Proliferation Assay kits, according to the Manufacturer's protocol. In brief, equal number of C2C12 (1×10^4 cells/well), AML-12 (1×10^4 cells/well) and IMR-32 (2×10^4 cells/well) were seeded on 96-well clear plates (VWR) and treated with vehicle or compounds for 24, […] and/or 72 hr. Then, cultured cells were incubated with AQueous One solution (100 ul/per well) at 37° C. for 1 hr, and the absorbance of OD490 nm in each sample was determined by the Bio-Tek microplate reader. Cell viability in culture cells were determined by the subtraction of OD490 nm in cultured cells with the OD490 nm in plain culture media (without seeding of cells). Eight samples per each treatment were examined for the above analysis. Data are presented as Mean±sem of eight samples.

The test system of the next series is AML-12 cells. The series can be described thus: Cell viability assay, AML-12. The format is cell-based, mouse. The method, then:
as §1

Series [2] relates to Adult rat brain ficoll purified mitochondria. The series is described as follows: Mitochondrial bioenergetics screen (Seahorse OCR) on isolated rat brain mitochondria. The format is biochemical. The note with it: 500 ppb, 30 min at 37° C. From the text: A water soluble extract was obtained from selenized yeast. […] We reasoned that these selenium species would be the first to be liberated/digested from selenized yeast in its passage through the intestinal tract. […] Because we were primarily interested in the potential effects of these selenium species on mitochondrial bioenergetics, it was decided to test these selenium molecules directly using mitochondria.
Selenium concentration ranges low (50 ppb), mid (500 ppb) and high (1 ppm) were initially tested as a possible range for the compounds. […] Adult rat brain ficoll purified mitochondria were incubated with the 9 compounds for 30 min at 37° C. prior to being loading into the Seahorse Biosciences flux analyzer in triplicate. We measured OCR (Oxygen Consumption Rates) parameters in three respiratory states including ATP synthesis (State III), Complex I dependent (NADH-driven) Maximum Respiratory Capacity (State VFCCP) and Complex II (FADH-driven) dependent Maximum Respiratory Capacity (State Vsucc).

A further series deals with HEK293T cells. The series can be described thus: Fluorescence analysis of mitochondrial potential in HEK293T cells. It is filed as cell-based, human. The note with it: dose not stated. How it is done:
HEK293T cells were cultured in 8-chamber glass slides (1×10^4 cells/chamber) for 24 hours, and then treated with various concentrations of compounds or its respective sulfur analogs (dissolved in sterilized water) for 4.5 hr. These compound-treated cells were rinsed twice with PBS, and incubated with Mitotracker Orange Fluorescence Dye (Invitrogen) at 37° C. for 30 min, and then replaced with fresh PBS according to the Manufacturer's protocol. Then fluorescent signals (mitochondrial potential) in these living cells were recorded using a Zeiss Axio Vert.A1 fluorescence microscope (Thornwood, N.Y.). At least three samples in each treatment group were analyzed under the fluorescent microscope.

The subject of series [3] is IMR-32 cells. The series can be described thus: Quantitative analysis of mitochondrial potential in IMR-32 cells. The format is cell-based, human. The note with it: 6 hr, compared to control. The method, then:
Similar to the above studies on AML-12 cells, the mitochondrial potential per cell in living IMR-32 cells was determined using the Bio-TeK Synergy HT Multi-Mode fluorescence microplate reader with the following modifications. To improve the attachment of IMR-32 cells to culture dishes, cell culture plates were precoated with 0.1% gelatin (Sigma, St. Louis, Mo.). 2×10^4 cells per a 96-well were seeded on gelatinized 96-well plates for the above studies. To reduce the cell dislodgment, Mitotracker orange and Hoechst 33342 fluorescent dyes (diluted in culture media) were directly added to each well after vehicle- or compound-treatments. After dye incubation, cell culture media were carefully replaced with 1× PBS for the quantitation analysis of fluorescence on the microplate reader. Eight samples per each treatment were examined for the above analysis, and the experiments were repeated at least five times. Data are presented as mean±sem of eight samples.

With `Nc1ncnc2c1ncn2[C@@H]1O[C@H](CSCCC(N)C(=O)O)C(O)C1O` (stereo in doubt) [compound I, S-Adenosyl-L-homocysteine, reference compound], in the series on C2C12 cells, the mitochondrial potential result is listed as “decreased mitochondrial potential at all concentrations”. Also, the “cell viability (OD490 nm)” value was “slight decrease in viability” with IMR-32 cells [1] (24, 48 and 72 hr); “no toxic effects” in the series on AML-12 cells (48 hr).
As to `C[Se]C[C@H]1O[C@@H](n2cnc3c(N)ncnc32)[C@H](O)[C@@H]1O` [Compound 9, MethylSelenoadenosine], the “mitochondrial potential (bioenergetics, OCR)” value in series [2] is “increased mitochondrial potential”.
Still for that read-out and setting: to `N[C@@H](CCC(=O)O)C(=O)N[C@@H](C[SeH])C(=O)O` [Compound 10, Glutamylselenocysteine] (H-Glu-[Sec]-OH) belongs “inhibited mitochondrial potential”.
Take `CSC[C@H]1O[C@@H](n2cnc3c(N)ncnc32)[C@@H](O)C1O` (some centres unmarked) [compound H, 5′-Methylthioadenosine, reference compound]: the “MT potential / mitochondrial activity in kidney cells” value in the series on HEK293T cells was “incapable of stimulating mitochondrial activity”. Besides, in the series with C2C12 cells, the mitochondrial potential result was “decreased mitochondrial potential at all concentrations”. Further, the MT potential entry in the series on IMR-32 cells [3] is on record as “Increased MT potential”. Further, the “cell viability (OD490 nm)” value with IMR-32 cells [1] (24, 48 and 72 hr) was “slight decrease in viability”; with AML-12 cells (48 hr), “no toxic effects”.
`CSC[C@H](NC(=O)CC[C@H](N)C(=O)O)C(=O)O` [compound J, γ-L-glutamyl-methyl-L-cysteine, reference compound]: in the series on HEK293T cells, the “MT potential / mitochondrial activity in kidney cells” value is given as “incapable of stimulating mitochondrial activity”. Besides, the entries for the “cell viability (OD490 nm)” value with IMR-32 cells [1] and with AML-12 cells were “slight decrease in viability” and “no toxic effects”, respectively.
Consider “Leucine-Threonine-Glycine-Selenomethionine-Alanine-Phenylalanine-Arginine [Compound 7]”, for which the “mitochondrial potential (bioenergetics, OCR)” value in series [2] is reported as “inhibited mitochondrial potential”.
